Measurements: PMC6269819, “Evaluation of the Biological Activity of Naturally Occurring 5,8-Dihydroxycoumarin” (Molecules, 2013)
Values joined by “and” are separate entries in the source; they are usually repeats but may differ in a detail not shown here. Equal values may be shown once. Marks after values point to notes of the source that are not given here.

What was measured:
[1] = Total phenolic compounds (TPC), Folin-Ciocalteu method
Description: The content of TPC was determined by the Folin–Ciocalteu method. Calibration curve was prepared by using 1 mL reference gallic acid solutions in ethanol (0.025, 0.075, 0.100, 0.175 and 0.350 mg/mL), which were mixed with 5 mL of a standard Folin-Ciocalteu reagent and diluted with distilled water (1:10) and 4 mL of 7.5% sodium carbonate solution in distilled water. The absorption was read after 30 min at 765 nm. The concentration of TPC was expressed in mg of gallic acid equivalents (GAE) per 1 g. The TPC was calculated by the following formula: C = c × V/m (2) where C is the concentration of gallic acid, determined form the calibration curve (mg/mL); V is the volume of 5,8-DHC solution (100 mL); m is the weight of 5,8-DHC (g).

[2] = test system: Wistar rat bone marrow cells; test: Micronucleus in vivo assay in rat bone marrow
Description: Male albino Wistar rats aged 8–10 weeks and having body weight of 200–220 g, were used in the present study. The animals were supplied by the Animal Facility of the Department of Immunology, State Research Institute Center for Innovative Medicine. Ethical approval was given by the Committee of the Lithuanian Animal Care and Use. Prior to the start of the study, the animals were acclimatized for 7 days. They were housed under conditions of constant temperature, humidity and a light/dark cycle of 12 h/12 h with free access to standard commercial pellet diet and drinking water. The animals were randomly distributed into 11 experimental groups of six rats each.
We used a mixture of dimethylsulfoxide (DMSO) and sunflower oil (1:2) as the vehicle for 5,8-DHC (5,8-DHC was dissolved in DMSO and adjusted to the desired dose with sunflower oil immediately before administration). For the acute treatment, the animals received single intraperitoneal (i.p.) injections of 10 or 20 mg/kg of 5,8-DHC in 1 mL volume per 100 g body weight (b.w.). The negative control group comprised animals, given a single i.p. injection of vehicle (1 mL/100 g b.w.) and the positive control group, given cyclophosphamide (CP, 30 mg/kg adjusted in 0.5 mL/100 g b.w. in sterile physiological saline). A commercial form of cyclophosphamide was used (‘Endoxan’, ASTA Medica AG, Frankfurt, Germany). Blank controls comprised untreated animals. For the repeated treatment, 5,8-DHC (10 or 20 mg/kg) or vehicle was administered via gavage (1 mL/100 g b.w.) once a day for 3 consecutive days. Animals were sacrificed 24 h or 48 h after the last dose administration. Colchicine was applied i.p. at a dose of 2 mg/kg b.w. in 1 mL volume 90 min before sacrifice. Both femurs were dissected from each animal and used to obtain bone marrow preparations for the analysis of chromosome aberrations and micronucleus.
The bone marrow MN assay was conducted according to the standard procedure. Ends of the femura were cut off and the bone marrow was washed out with 2 mL of heat-inactivated foetal calf serum (Biochrom AG, Berlin, Germany), mixed thoroughly to obtain a fine suspension and centrifuged for 5 min at 150 × g. The supernatant was discarded and the cell pellet was carefully re-suspended. At least two smears per animal were prepared and allowed to air dry prior to fixation with methanol. The slides were stained in May-Grünwald solution followed by Giemsa (both Merck), coded and scored blind by the same scorer under magnification of 1000× (Jenaval, Zeiss, Jena, Germany). Micronucleated polychromatic erythrocyte (MNPCE) frequencies were based on the observation of 2,000 immature polychromatic erythrocytes (PCEs). Bone marrow toxicity was monitored by a decrease of PCE to total erythrocytes (e.g., PCEs+NCEs, normochromatic erythrocytes). At least 1,000 bone marrow erythrocytes per animal were analysed.

[3] = ABTS•+ radical cation decolorization assay; conditions: 16 min reaction
Description: The experiments were carried out using a slightly modified 2,2’-azinobis (3-ethylbenzothiazoline-6-sulfonic acid) diammonium salt (ABTS, Sigma-Aldrich Chemie, Steinheim, Germany) decolorization assay. Stock solution of ABTS (2 mM) was prepared by dissolving in 50 mL of phosphate buffered saline (PBS) obtained by dissolving 0.27 g of KH2PO4 (Jansen Chimica, Beerse, Belgium), 1.42 g of Na2HPO4, 8.18 g of NaCl, and 0.15 g of KCl (Merck, Darmstadt, Germany) in 1 L of distilled water. The pH was adjusted to 7.4 using NaOH solution. The ABTS^•+ was produced by reacting 50 mL of ABTS stock solution with 200 μL of K2S2O8 solution. The ABTS^•+ solution was diluted with PBS before measurements to obtain the absorbance of 0.800 ± 0.030 at 734 nm. 5,8-DHC was dissolved in PBS at the concentrations of 0.0025, 0.005, 0.01, 0.025 and 0.05% before the reaction. A 3 mL aliquot of ABTS^•+ solution was mixed with 30 μL of 5,8-DHC solution in the 1 cm path length quartz cuvette. The absorbance was read at ambient temperature after 16 min. PBS solution was used as a blank. All determinations were carried out in triplicate. Radical scavenging capacity was expressed as in DPPH^• scavenging assay.

[4] = Ferric reducing/antioxidant power (FRAP) assay
Description: The ability of antioxidants to reduce ferric ion to the ferrous ion, (FRAP assay) is another indicator frequently used for assessing antioxidant power. Ferrous ion (Fe^2+) produced in this assay forms a blue complex (Fe^2+/TPTZ) absorbing at 593 nm. Briefly, the reagent was prepared by mixing acetate buffer (300 mM, pH 3.6), a solution of 10 mM TPTZ in 40 mM HCl, and 20 mM FeCl3 × 6H2O at 10:1:1 (v/v/v). Firstly 300 μL of freshly prepared FRAP reagent was heated to 37 °C and an absorbance (A0) of a blank reagent was read at 593 nm in a Biotek EL808 microplate reader (Winooski, VT, USA). Then 10 μL of 0.01% 5,8-DHC solution in water and 30 μL H2O were added and the absorbance (A) was recorded every 1 min during the whole monitoring period which lasted up to 30 min. The change in the absorbance (ΔA593 nm) between the final reading and A0 was calculated for each sample and related to the ΔA593 nm of a Fe^2+ reference solution which was measured simultaneously. The value is expressed in Trolox equivalents required to obtain similar reducing power.

[5] = repeated gavage 3 × 10 mg/kg b.w., sacrifice 48 h
[6] = repeated gavage 3 × 20 mg/kg b.w., sacrifice 48 h
[7] = single i.p. 10 mg/kg b.w., sacrifice 24 h
[8] = single i.p. 10 mg/kg b.w., sacrifice 48 h

O=c1ccc2c(O)ccc(O)c2o1 [5,8-DHC, 5,8-Dihydroxycoumarin]
content of total phenols (TPC) [1]: 581.0 ± 0.0 mg gallic acid equivalents (GAE) in 1 g | cytotoxicity (decline of the proportion of PCEs to total erythrocytes) ([2]; rat, in vivo): no signs of 5,8-DHC cytotoxicity | effect on the frequency of MNPCEs ([2]; repeated gavage): no obvious effect | MNPCE (%± S.E.M.) [2, 5]: 0.24 ± 0.05% | PCE (%± S.E.M.) [2, 5]: 31.7 ± 4.0% | MNPCE (%± S.E.M.) [2, 6]: 0.23 ± 0.05% | PCE (%± S.E.M.) [2, 6]: 45.5 ± 3.5% | MNPCE (%± S.E.M.) [2, 7]: 0.56 ± 0.08 ^a % | PCE (%± S.E.M.) [2, 7]: 32.1 ± 1.9% | MNPCE (%± S.E.M.) [2, 8]: 0.30 ± 0.06% | PCE (%± S.E.M.) [2, 8]: 31.8 ± 5.6% | PCE (%± S.E.M.) ([2]; single i.p. 20 mg/kg b.w., sacrifice 24 h): 36.6 ± 2.8% | MNPCE (%± S.E.M.) ([2]; single i.p. 20 mg/kg b.w., sacrifice 24 h, 20 mg/kg): 0.63% and 0.63 ± 0.04 ^a % | PCE (%± S.E.M.) ([2]; single i.p. 20 mg/kg b.w., sacrifice 48 h): 26.6 ± 5.0% | MNPCE (%± S.E.M.) ([2]; single i.p. 20 mg/kg b.w., sacrifice 48 h, 20 mg/kg): 0.59% and 0.59 ± 0.14^a % | IC50 in ABTS•+ reaction [3]: 0.028% | FRAP value [4]: 577 ± 0.0 mg/g in Trolox equivalents
